# Measurements reported in ChEMBL document CHEMBL2034889, “The design and synthesis of novel, potent and orally bioavailable N-aryl piperazine-1-carboxamide CCR2 antagonists with very high hERG selectivity” (Bioorg Med Chem Lett, 2012).
# Active and inactive are the calls of the source. The calls are words filed in the database; no cut-off is given here.
# How the values were obtained:
# [1] = biological target: T1, C-C chemokine receptor type 2 (Homo sapiens, UniProt P41597); test: Displacement of 125I-MCP1 from human CCR2 receptor expressed in human THP-1 cell membrane by SPA assay; assay type: cell membranes
# T1 sequence (P41597 whole entry): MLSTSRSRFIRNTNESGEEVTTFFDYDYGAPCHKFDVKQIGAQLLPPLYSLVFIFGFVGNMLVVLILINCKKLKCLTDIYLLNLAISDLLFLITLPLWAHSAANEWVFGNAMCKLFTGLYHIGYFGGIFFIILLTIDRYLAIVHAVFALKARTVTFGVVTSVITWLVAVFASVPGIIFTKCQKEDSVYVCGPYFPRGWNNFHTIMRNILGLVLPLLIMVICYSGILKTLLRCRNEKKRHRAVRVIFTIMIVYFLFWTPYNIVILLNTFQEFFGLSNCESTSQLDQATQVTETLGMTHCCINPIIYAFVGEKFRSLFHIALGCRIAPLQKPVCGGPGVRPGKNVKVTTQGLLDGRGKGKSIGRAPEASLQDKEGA
# [2] = biological target: T1, C-C chemokine receptor type 2; test: Antagonist activity at human CCR2 receptor expressed in human THP-1 cells assessed as inhibition of MCP1-induced Ca2+ flux by FLIPR analysis; assay type: functional, cell-based
# [3] = biological target: T2, Voltage-gated inwardly rectifying potassium channel KCNH2 (Homo sapiens, UniProt Q12809)
# T2 sequence (Q12809 whole entry): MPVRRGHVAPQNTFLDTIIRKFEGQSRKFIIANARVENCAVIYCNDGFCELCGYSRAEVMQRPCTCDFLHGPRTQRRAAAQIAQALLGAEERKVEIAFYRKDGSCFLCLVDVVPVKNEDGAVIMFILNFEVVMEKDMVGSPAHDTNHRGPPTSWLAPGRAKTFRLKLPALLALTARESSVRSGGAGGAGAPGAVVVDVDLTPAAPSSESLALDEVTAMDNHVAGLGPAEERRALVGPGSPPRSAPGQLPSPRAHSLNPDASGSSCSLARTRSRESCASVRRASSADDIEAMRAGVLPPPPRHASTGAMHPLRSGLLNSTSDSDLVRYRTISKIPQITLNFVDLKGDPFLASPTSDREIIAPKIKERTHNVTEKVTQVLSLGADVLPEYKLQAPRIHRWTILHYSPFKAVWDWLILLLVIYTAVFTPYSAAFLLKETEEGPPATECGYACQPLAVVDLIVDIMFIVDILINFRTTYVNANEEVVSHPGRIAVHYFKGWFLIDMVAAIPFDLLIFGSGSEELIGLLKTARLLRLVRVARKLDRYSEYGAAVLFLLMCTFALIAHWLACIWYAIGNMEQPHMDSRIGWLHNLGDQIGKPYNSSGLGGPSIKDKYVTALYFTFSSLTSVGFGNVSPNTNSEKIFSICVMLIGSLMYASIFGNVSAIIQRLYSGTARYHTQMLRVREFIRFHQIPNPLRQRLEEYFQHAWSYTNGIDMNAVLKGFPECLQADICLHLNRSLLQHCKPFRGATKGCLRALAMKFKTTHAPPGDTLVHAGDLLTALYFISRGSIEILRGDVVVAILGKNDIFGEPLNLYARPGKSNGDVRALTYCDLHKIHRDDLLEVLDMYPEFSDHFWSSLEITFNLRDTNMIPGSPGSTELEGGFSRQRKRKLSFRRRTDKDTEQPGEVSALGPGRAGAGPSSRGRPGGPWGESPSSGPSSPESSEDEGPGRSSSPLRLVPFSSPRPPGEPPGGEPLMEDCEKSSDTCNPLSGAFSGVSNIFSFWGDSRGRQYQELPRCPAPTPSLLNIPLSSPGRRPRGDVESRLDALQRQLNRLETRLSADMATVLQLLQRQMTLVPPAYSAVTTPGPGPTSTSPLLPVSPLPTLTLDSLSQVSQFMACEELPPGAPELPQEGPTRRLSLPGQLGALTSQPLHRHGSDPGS
# [4] = Lipophilicity, log P of the compound at pH 7.4; assay type: physicochemical; conditions: buffer
# [5] = Lipophilicity, log D of the compound at pH 7.4; assay type: physicochemical; conditions: buffer
# [6] = Dissociation constant, pKa of the compound; assay type: physicochemical
# [7] = Intrinsic clearance in dog hepatocytes assessed per 10^6 cells; assay type: ADME, cell-based, Canis lupus familiaris, Hepatocyte; conditions: read-out: CLH
# [8] = biological target: T1, C-C chemokine receptor type 2; test: Antagonist activity at human CCR2 in human peripheral whole blood assessed as inhibition of MCP1-induced L-selectin shedding; assay type: functional, tissue-based; conditions: read-out: pA2 (converted)
# [9] = Clearance in dog at 4 umol/kg, iv; assay type: ADME, organism-based, Canis lupus familiaris; conditions: in vivo
# [10] = Volume of distribution at steady state in dog at 4 umol/kg, iv; assay type: ADME, organism-based, Canis lupus familiaris; conditions: in vivo, read-out: Vdss
# [11] = Oral bioavailability in rat at 11 umol/kg; assay type: ADME, organism-based; conditions: in vivo
# [12] = Antagonist activity at dog CCR2 receptor expressed in human THP-1 cells assessed as inhibition of MCP1-induced Ca2+ flux by FLIPR analysis; assay type: functional, cell-based
# [13] = Oral bioavailability in dog at 4 umol/kg; assay type: ADME, organism-based, Canis lupus familiaris; conditions: in vivo
# [14] = Intrinsic clearance in rat hepatocytes assessed per 10^6 cells; assay type: ADME, cell-based, Hepatocyte; conditions: read-out: CLH
# [15] = Intrinsic clearance in human hepatocytes assessed per 10^6 cells; assay type: ADME, cell-based, Hepatocyte; conditions: read-out: CLH
# [16] = biological target: T3, C-X-C chemokine receptor type 5 (Homo sapiens) (UniProt P32302); test: Inhibition of human CXCR5 by FLIPR analysis
# T3 sequence (whole entry): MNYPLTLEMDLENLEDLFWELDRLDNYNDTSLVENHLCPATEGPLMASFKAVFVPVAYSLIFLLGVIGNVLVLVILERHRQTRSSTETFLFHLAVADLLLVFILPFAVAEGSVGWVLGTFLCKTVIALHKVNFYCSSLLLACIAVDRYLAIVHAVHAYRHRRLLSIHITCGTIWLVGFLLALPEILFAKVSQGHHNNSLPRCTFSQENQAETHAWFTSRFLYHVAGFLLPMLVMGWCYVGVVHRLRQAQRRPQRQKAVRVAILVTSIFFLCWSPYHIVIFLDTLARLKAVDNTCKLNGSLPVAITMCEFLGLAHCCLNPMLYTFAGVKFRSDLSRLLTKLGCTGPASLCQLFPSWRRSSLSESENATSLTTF
# [17] = biological target: C-X-C chemokine receptor type 4 (Homo sapiens) (UniProt P61073); test: Inhibition of human CXCR4 by FLIPR analysis
# Sequence of C-X-C chemokine receptor type 4 (Homo sapiens) (P61073 whole entry): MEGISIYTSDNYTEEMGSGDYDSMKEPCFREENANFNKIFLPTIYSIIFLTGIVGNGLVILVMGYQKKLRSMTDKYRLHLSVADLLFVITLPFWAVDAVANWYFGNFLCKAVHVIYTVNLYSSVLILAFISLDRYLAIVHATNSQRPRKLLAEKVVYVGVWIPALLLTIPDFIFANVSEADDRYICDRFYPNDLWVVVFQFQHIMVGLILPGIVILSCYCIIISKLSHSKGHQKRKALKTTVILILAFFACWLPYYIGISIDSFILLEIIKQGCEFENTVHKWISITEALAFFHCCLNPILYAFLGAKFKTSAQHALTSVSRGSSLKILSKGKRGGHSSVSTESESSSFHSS
# [18] = biological target: C-C chemokine receptor type 2 (Mus musculus, UniProt P51683); test: Antagonist activity at mouse CCR2 receptor expressed in human THP-1 cells assessed as inhibition of MCP1-induced Ca2+ flux by FLIPR analysis; assay type: functional, cell-based
# Sequence of C-C chemokine receptor type 2 (Mus musculus, UniProt P51683) (P51683 whole entry): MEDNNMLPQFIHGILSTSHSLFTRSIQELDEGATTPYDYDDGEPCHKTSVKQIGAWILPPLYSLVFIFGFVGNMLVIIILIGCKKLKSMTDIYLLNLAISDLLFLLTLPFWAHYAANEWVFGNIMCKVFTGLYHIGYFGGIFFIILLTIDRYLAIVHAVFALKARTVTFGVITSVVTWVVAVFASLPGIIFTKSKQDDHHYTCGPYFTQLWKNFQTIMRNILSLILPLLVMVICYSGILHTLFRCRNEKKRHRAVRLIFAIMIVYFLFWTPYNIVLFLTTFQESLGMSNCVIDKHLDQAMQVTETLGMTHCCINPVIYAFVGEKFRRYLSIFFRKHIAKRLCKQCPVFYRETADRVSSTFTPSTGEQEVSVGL
# [19] = biological target: T4, C-C chemokine receptor type 2 (Rattus norvegicus, UniProt O55193); test: Antagonist activity at rat CCR2 receptor expressed in human THP-1 cells assessed as inhibition of MCP1-induced Ca2+ flux by FLIPR analysis; assay type: functional, cell-based
# T4 sequence (O55193 whole entry): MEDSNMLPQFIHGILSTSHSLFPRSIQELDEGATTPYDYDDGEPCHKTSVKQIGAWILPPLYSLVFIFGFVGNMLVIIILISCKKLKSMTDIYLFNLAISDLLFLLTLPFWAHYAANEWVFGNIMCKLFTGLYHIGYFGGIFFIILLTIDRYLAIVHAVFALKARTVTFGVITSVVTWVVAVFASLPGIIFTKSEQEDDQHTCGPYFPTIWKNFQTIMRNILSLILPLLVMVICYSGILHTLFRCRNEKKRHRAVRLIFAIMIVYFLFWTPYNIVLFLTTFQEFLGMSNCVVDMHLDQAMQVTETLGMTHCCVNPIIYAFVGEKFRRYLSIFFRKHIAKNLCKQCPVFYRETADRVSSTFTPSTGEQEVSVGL
# [20] = biological target: C-C chemokine receptor type 8 (Homo sapiens) (UniProt P51685); test: Inhibition of human CCR8 by FLIPR analysis
# Sequence of C-C chemokine receptor type 8 (Homo sapiens) (P51685 whole entry): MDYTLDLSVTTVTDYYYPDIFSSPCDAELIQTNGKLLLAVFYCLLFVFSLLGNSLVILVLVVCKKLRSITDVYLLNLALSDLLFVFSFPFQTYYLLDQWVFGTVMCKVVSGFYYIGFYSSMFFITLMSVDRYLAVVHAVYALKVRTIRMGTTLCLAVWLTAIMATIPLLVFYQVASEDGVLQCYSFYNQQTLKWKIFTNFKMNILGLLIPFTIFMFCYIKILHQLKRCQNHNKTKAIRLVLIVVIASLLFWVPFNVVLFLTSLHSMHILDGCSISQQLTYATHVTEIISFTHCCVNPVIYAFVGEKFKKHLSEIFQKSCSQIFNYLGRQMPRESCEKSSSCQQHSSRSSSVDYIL
# [21] = Half life in dog at 4 umol/kg, iv; assay type: ADME, organism-based, Canis lupus familiaris; conditions: in vivo
# [22] = Volume of distribution at steady state in rat at 4 umol/kg, iv; assay type: ADME, organism-based; conditions: in vivo, read-out: Vdss
# [23] = Aqueous solubility of the compound; assay type: physicochemical; conditions: buffer
# [24] = biological target: T5, C-C chemokine receptor type 1 (Homo sapiens) (UniProt P32246); test: Inhibition of human CCR1 by FLIPR analysis
# T5 sequence (whole entry): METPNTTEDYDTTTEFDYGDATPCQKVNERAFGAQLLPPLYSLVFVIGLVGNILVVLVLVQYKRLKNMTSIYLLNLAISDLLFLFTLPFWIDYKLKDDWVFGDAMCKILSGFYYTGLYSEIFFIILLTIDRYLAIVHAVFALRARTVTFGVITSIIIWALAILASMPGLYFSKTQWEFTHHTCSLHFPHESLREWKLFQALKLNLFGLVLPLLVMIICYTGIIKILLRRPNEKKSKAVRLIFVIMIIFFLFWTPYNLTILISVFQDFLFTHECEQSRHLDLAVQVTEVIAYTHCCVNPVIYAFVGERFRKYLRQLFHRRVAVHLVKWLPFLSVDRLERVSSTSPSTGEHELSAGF
# [25] = biological target: C-C chemokine receptor type 5 (Homo sapiens, UniProt P51681); test: Inhibition of human CCR5 by FLIPR analysis
# Sequence of C-C chemokine receptor type 5 (P51681 whole entry): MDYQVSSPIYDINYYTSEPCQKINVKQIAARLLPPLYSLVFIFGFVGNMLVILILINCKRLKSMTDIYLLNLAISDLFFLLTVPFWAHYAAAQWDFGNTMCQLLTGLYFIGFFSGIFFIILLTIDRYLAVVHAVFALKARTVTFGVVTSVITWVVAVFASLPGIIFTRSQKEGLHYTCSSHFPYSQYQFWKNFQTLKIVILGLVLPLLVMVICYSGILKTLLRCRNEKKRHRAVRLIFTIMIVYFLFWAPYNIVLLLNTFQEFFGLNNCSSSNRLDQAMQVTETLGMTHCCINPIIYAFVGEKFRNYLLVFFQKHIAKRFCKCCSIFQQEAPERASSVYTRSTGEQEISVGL
# [26] = Clearance in rat at 4 umol/kg, iv; assay type: ADME, organism-based; conditions: in vivo
# [27] = biological target: T2, Voltage-gated inwardly rectifying potassium channel KCNH2; test: Inhibition of human ERG by electrophysiology assay
# [28] = Half life in rat at 4 umol/kg, iv; assay type: ADME, organism-based; conditions: in vivo
structure (smiles),measurement,setting,value
COc1ccc(NC(=O)N2CCN(C[C@@H]3CCCN(C4CC4)C3)CC2)cc1,IC50,[1],1460 nM
O=C(Nc1ccc(Cl)c(Cl)c1)N1CCN(C[C@@H]2CCCN(CCc3ccccc3)C2)CC1,IC50,[2],42 nM
same,IC50,[1],5 nM
CCN1CCNC(CN2CCN(C(=O)Nc3ccc(Cl)c(Cl)c3)CC2)C1 (racemic),IC50,[3],8900 nM
same,IC50,[1],797 nM
CCN1CCN[C@@H](C(=O)N2CCN(C(=O)Nc3ccc(Cl)c(Cl)c3)CC2)C1,IC50,[2],55 nM
same,IC50,[1],21 nM
O=C(Nc1ccc(Br)cc1)N1CCN(C[C@@H]2CCCN(C3CC3)C2)CC1,IC50,[3],7100 nM
same,IC50,[2],162 nM
same,IC50,[1],58 nM
CC(C)N1CCC[C@@H](CN2CCN(C(=O)Nc3ccc(Cl)c(Cl)c3)CC2)C1,logP,[4],4.2
same,IC50,[3],1300 nM
same,logD,[5],1.62
same,IC50,[2],58 nM
same,IC50,[1],16 nM
same,pKa,[6],10
O=C(Nc1ccc(F)c(Cl)c1)N1CCN(C[C@@H]2CCCN(C3CC3)C2)CC1,IC50,[3],14000 nM
same,IC50,[2],75 nM
same,IC50,[1],50 nM
O=C(Nc1ccc(Cl)c(C(F)(F)F)c1)N1CCN(C[C@@H]2CCCN(C3CC3)C2)CC1,IC50,[3],6300 nM
same,IC50,[2],421 nM
same,IC50,[1],35 nM
CCN1CCO[C@@H](CN2CCN(C(=O)Nc3ccc(Cl)c(Cl)c3)CC2)C1,IC50,[3],7900 nM
same,IC50,[2],277 nM
same,IC50,[1],64 nM
O=C(Nc1ccc(Cl)c(Cl)c1)N1CCN(C[C@@H]2CCCN(CC3CC3)C2)CC1,IC50,[2],161 nM
same,IC50,[1],52 nM
O=C(Nc1cccc(Cl)c1)N1CCN(C[C@@H]2CCCN(C3CC3)C2)CC1,IC50,[2],202 nM
same,IC50,[1],171 nM
O=C(Nc1ccc(Cl)c(Cl)c1)N1CCN(C[C@H]2CN(C3CC3)CCO2)CC1,IC50,[2],262 nM
same,IC50,[1],267 nM
O=C(Nc1ccc(Cl)c(Cl)c1)N1CCN(C[C@@H]2CCCN(CCCc3ccccc3)C2)CC1,IC50,[3],400 nM
same,IC50,[2],280 nM
same,IC50,[1],64 nM
CC(C)N1CCN[C@@H](CN2CCN(C(=O)Nc3ccc(Cl)c(Cl)c3)CC2)C1,IC50,[2],32 nM
same,IC50,[1],26 nM
CCN1CCOC(C(=O)N2CCN(C(=O)Nc3ccc(Cl)c(Cl)c3)CC2)C1 (racemic),IC50,[3],5000 nM
same,IC50,[2],> 1000 nM
same,IC50,[1],2570 nM
CC(C)N1CCN[C@@H](C(=O)N2CCN(C(=O)Nc3ccc(Cl)c(Cl)c3)CC2)C1,hepatocyte CLint,[7],< 2 µL/min/1e6 cells
same,Kb,[8],3.47 nM
same,clearance,[9],17 mL/min/kg
same,logD,[4],2.7
same,Vd,[10],8.5 L/kg
same,IC50,[3],17000 nM
same,logD,[5],2.21
same,bioavailability,[11],11%
same,IC50,[12],1600 nM
same,bioavailability,[13],83%
same,hepatocyte CLint,[14],< 2 µL/min/1e6 cells
same,hepatocyte CLint,[15],< 2 µL/min/1e6 cells
same,inhibition,[16],inactive
same,IC50,[2],5.8 nM
same,inhibition,[17],inactive
same,IC50,[18],1200 nM
same,IC50,[19],200 nM
same,inhibition,[20],inactive
same,half-life,[21],9.1 h
same,Vd,[22],4 L/kg
same,solubility,[23],> 3.1 mM
same,inhibition,[24],inactive
same,IC50,[25],22 nM
same,IC50,[1],3.5 nM
same,pKa,[6],7.8
same,clearance,[26],30 mL/min/kg
same,IC50,[27],60000 nM
same,half-life,[28],3 h
N#Cc1ccc(NC(=O)N2CCN(C[C@@H]3CCCN(C4CC4)C3)CC2)cc1,IC50,[2],4360 nM
same,IC50,[1],449 nM
CN1CCN[C@@H](C(=O)N2CCN(C(=O)Nc3ccc(Cl)c(Cl)c3)CC2)C1,IC50,[3],20000 nM
same,IC50,[2],362 nM
same,IC50,[1],69 nM
O=C(Nc1ccc(Cl)c(Cl)c1)N1CCN(C(=O)[C@H]2CN(C3CC3)CCN2)CC1,IC50,[3],19000 nM
same,IC50,[2],38 nM
same,IC50,[1],32 nM
